Square brackets hold non-standard residues; d marks the D form. Peptide text beside a SMILES is read from it. * marks the point of attachment. PhAc = O=C(Cc1ccccc1)*
Key:
BALB/c mice = test: Adoptive transfer delayed type hypersensitivity in mice (oxazolone); assay type: in vivo, mouse; details: for swelling at challenge site (in words): 6 mg/kg/day s.c. pump for 24 hours
Method: An adoptive transfer delayedtype hypersensitivity murine model has been developed using splenic T cells primed to oxazolone. This model is described in Elices et al., Clin. Exp. Rheum., 11(Suppl. 8):577-580 (1993), whose procedures were followed here.
Thus, BALB/c mice were shaved on the belly and painted (50 μl on the belly and 5 μl on each paw) with three percent oxazolone in acetone/olive oil (4:1) at days zero and 1. At day 5, the mice were sacrificed, their spleens removed, and splenic T cells were obtained via nylon wool columns.
Normal saline or saline containing 25×10^6 /animal of the oxazoloneimmune T cells were separately injected into naive mice. The mic were then challenged by painting 10 μl of 2 percent oxazolone onto one ear each. All procedures were carried out under sterile conditions and in endotoxingfree buffers.
Prior to challenge or saline injection, the mice were implanted with pumps that subcutaneously administered normal saline, normal saline containing the peptide N--phenylacetyl--Leu--Asp--Phe--D--Pro--NH2 or normal saline containing a peptide with a scrambled sequence continually at 6 mg/kg/day for a 24-hour time period. The swelling diameter at the site of challenge or saline injection was measured with a microcaliper 24 hours thereafter.
An expanded study was carried out as described above except that a scrambled peptide control was not used using further inhibitor peptides o Table 1 with larger groups of mice. Statistical analyses were carried out versus injection of vehicle alone. Those results are shown below in Table 2.

[1] = system: New Zealand white rabbits; test: Rabbit cardiac allograft model; assay type: in vivo; details: for Expression on Coronary Arteries: ICAM-1 / Expression on Coronary Arteries: Macrophages / Expression on Coronary Arteries: T cells / Expression on Coronary Arteries: Total Fibronectin / Expression on Coronary Arteries: VCAM-1 / Vessel Intimal Thickening: Percent of Vessels / Vessel Intimal Thickening: Severity (Percent of Vessel area) / Expression on Coronary Arteries: MHC Class II: 1 mg/kg s.c., donor heart; for Expression on Coronary Arteries: MHC Class II: 7 to 8 days; on Expression on Coronary Arteries: ICAM-1: key: -: negative; ±: minimal; +: little; ++: moderately abundant; +++: very abundant; on Expression on Coronary Arteries: Macrophages: key: -: negative; ±: minimal; +: little; ++: moderately abundant; +++: very abundant; on Expression on Coronary Arteries: T cells: key: -: negative; ±: minimal; +: little; ++: moderately abundant; +++: very abundant; on Expression on Coronary Arteries: Total Fibronectin: key: -: negative; ±: minimal; +: little; ++: moderately abundant; +++: very abundant
Excerpt: New Zealand white female rabbits (Charles River Lab., Saint Laurent, Quebec), between 3.5 and 4 kg underwent heterotopic cardiac transplant following an experimental protocol previously described [Alonso et al., Am. J. Pathol., 87:415-442 (1977); Clausell et al., Circulation, 89:2768-2779 (1994)] and approved by the Animal Care Committee of The Hospital for Sick Children, Toronto. The animals were […] to favor an HLA-mismatch, the host rabbits were Pasteurella-free and the donors, outbred animals. Both host and donor rabbits were fed Purina 5321-0.5 percent cholesterol diet (Research Diets Inc., New Brunswick, N.J.), a strategy that has proven useful in accelerating the process of allograft arteriopathy [Alonso et al., Am. J. Pathol., 87:415-442 (1977)]. The diet was commenced four days prior to the transplant and continued in the recipient of the transplant until the completion of the experimental period.
The technique of heterotopic cardiac transplantation has been previously described [Clausell et al., Circulation, 89:2768-2779 (1994)]. Briefly, a vertical incision was performed in the anterior aspect of the neck of the recipient rabbit and the left common carotid artery and the ipsilateral external jugular vein were isolated. The cardiac allograft was placed in the neck by anastomosing the aorta end-to-side to the recipient's carotid artery and the pulmonary end-to-side to the recipient's external jugular vein, following a total period of ischemia for the donor hearts of approximately 30 minutes. Postoperative care was in compliance with the Principles of Laboratory Animal Care formulated by the Canadian National Society for Medical Research.
Beginning the day of the transplant, the animals were randomized and treated with either scrambled peptide (control group) at 1 mg/kg s.c. or the inhibitor peptide at 1 mg/kg s.c. The doses of the peptides were empirically extrapolated to the in vivo model based on preliminary in vitro studies, of Table 1. No other immunosuppression therapy was administered. The grafts were monitored daily by palpation and maintained for 7 to 8 days, a previously described endpoint that was associated with myocardial rejection (impaired cardiac contractility) and development of the allograft arteriopathy in this model [Clausell et al., Circulation, 89:2768-2779 (1994)]. A total of fourteen animals were studied in the control (n=7) and treated (n=7) groups.
The animals were sacrificed using a lethal dose of euthanol (480 mg i.v.) (MTC Pharmaceutical, Cambridge, ON), host and donor hearts were removed, and the coronary arteries were perfused with saline through the aorta, followed by light fixation by perfusion with 2 percent paraformaldehyde (Sigma, St, Louis, Mo.). […] Different sections of the hearts were either saved in 10 percent formalin (BDH Inc., Toronto, ON) for light microscopy studies or immediately frozen in O.T.C. Compound Tissue Tek (Miles Inc., Elkart, Ind.) for specific immunohistochemistry studies.
Three different paraffin-embedded tissue sections from host and donor hearts from both control and treated rabbits were stained by the Movat pentachrome method for light microscopy. Morphometric analysis was performed using a Zeiss microscope attached to a computer-generated video analysis system (Perceptics Inc., NuVision software), as described in Clausell et al., Circulation, 89:2768-2779 (1994). The number of vessels with intimal lesions were counted in all three heart sections from each animal studied and are expressed as a percentage of the total vessel number.
In the host hearts, 999 vessels in the control group and 1054 vessels in the treated group were analyzed. In the donor hearts, 827 vessels in the control group and 617 vessels in the treated group were analyzed. […]

SJL/J mice = test: Experimental autoimmune encephalomyelitis in mice; assay type: in vivo; details: 1 mg/mouse i.p. at days 8 and 9; versus scrambled control peptide
Method: EAE was induced in female SJL/J mice (8 to 14 weeks old) by immunization on day zero with 50 μg of a peptide corresponding to positions 139-151 of PLP emulsified in a 1:1 mixture of PBS and complete Freund's adjuvant (CFA). Each mouse was injected with 0.2 ml of the adjuvant emulsion subcutaneously (s.c.) at two sites in the hind flank. All mice received 10^7 killed Bordetella pertussis units in 100 μl were injected intravenously 24 to 72 hours later.
Mice were observed daily, beginning at day 8 for clinical signs of EAE, and disease was scored on a scale of 0-5 as: 0=no disease; 1=floppy tail; 2=moderate hind limb weakness; 3=paraparesis; 4=paraplegis with moderate forelimb weakness; 5=qualdriplegis or premoribund state.
The inhibitor peptide N--phenylacetyl--Leu--Asp--Phe--D--Pro--NH2 was administered intraperitoneally at 1 mg/mouse in 0.2 ml of incomplete Freund's adjuvant at days 8 and 9. A peptide having a scrambled sequence [N--phenylacetyl--Asp--Leu--Phe--D--Pro--NH2 ] was similarly administered to serve as a control.
Summed or averaged scores for clinical signs were plotted vs. time. The area under the resulting curves was calculated between day 8 and day 35 to calculate percentage inhibition of EAE by an inhibitor peptide. The percent inhibition was calculated as follows: [formula]

CC(C)C[C@H](NC(=O)[C@H](CC(=O)O)NC(=O)Cc1ccccc1)C(=O)N[C@@H](Cc1ccccc1)C(=O)N1CCC[C@@H]1C(N)=O [X L D F p phenylacetyl amide scrambled, N--phenylacetyl--Asp--Leu--Phe--D--Pro--NH2, reference compound] (PhAc-DLF[dP]-NH2)
swelling at challenge site (in words) (BALB/c mice): no reduction of inflammation
Expression on Coronary Arteries: ICAM-1 [1]: +
Expression on Coronary Arteries: Macrophages [1]: +
Expression on Coronary Arteries: T cells [1]: ++
Expression on Coronary Arteries: Total Fibronectin [1]: ++
Expression on Coronary Arteries: VCAM-1 [1]: +
Vessel Intimal Thickening: Percent of Vessels [1]: 88%
Vessel Intimal Thickening: Severity (Percent of Vessel area) [1]: 36%
Expression on Coronary Arteries: MHC Class II [1]: ++
Baseline (rabbit own host heart) of incidence [1]: 1%
Baseline (rabbit own host heart) of severity [1]: 12%

CC(C)C[C@H](NC(=O)Cc1ccccc1)C(=O)N[C@@H](CC(=O)O)C(=O)N[C@@H](Cc1ccccc1)C(=O)N1CCC[C@@H]1C(N)=O [X L D F p phenylacetyl amide, N--phenylacetyl--Leu--Asp--Phe--D--Pro--NH2] (PhAc-LDF[dP]-NH2)
swelling at challenge site (in words) (BALB/c mice): reduced thi type of CS1/VLA-4-mediated immunoinflammation
Percent Inhibition (BALB/c mice; expanded study, 6 mg/kg/day, versus vehicle): 36%
Expression on Coronary Arteries: ICAM-1 [1]: ±
Expression on Coronary Arteries: Macrophages [1]: ±
Expression on Coronary Arteries: T cells [1]: ±
Expression on Coronary Arteries: Total Fibronectin [1]: ±
Expression on Coronary Arteries: VCAM-1 [1]: ±
Vessel Intimal Thickening: Percent of Vessels [1]: 35%
Vessel Intimal Thickening: Severity (Percent of Vessel area) [1]: 16%
Expression on Coronary Arteries: MHC Class II [1]: ±
Baseline (rabbit own host heart) of incidence [1]: 12%
Baseline (rabbit own host heart) of severity [1]: 12%
clinical signs of EAE (SJL/J mice): marked improvement in clinical signs
